According to patent publication US20110060000A1, “ACRIDINE ANALOGS IN THE TREATMENT OF GLIOMAS” (priority 2009, published 2011):
Entries after “also recorded” stand apart in the source; their conditions may differ.

What was measured:
caspase 12 = experiment: Procaspase 12 cleavage in astrocytes; type: cell-based, rat
Procedure: Cells were treated with the agents as indicated in the x axis. Subsequently cells were harvested and protein was extracted and then separated via SDS-PAGE and immunoblotted. The arrow highlights the 45 kDa band that results from cleavage of procaspase 12 and corresponding to the active caspase.
Thereafter, cells were harvested and protein extracted. Procaspase 12 band at 65 kDa was identified. In some of the treatments, the active product at 45 kDa was also detected. […] Conversely, in C6, higher GRP78 levels and the cell environment reflect significant caspase activation. […] Caspase activation in ERSR conditions was also confirmed with a TUNEL based apoptosis detection system in C6. C6 were treated with THAP for 24 hours and thereafter processed for TUNEL accordingly to manufacturer instructions. Staurosporin, a well known inducer of apoptosis in glial cells, was also included as a positive control. High resolution images of the experiments were acquired and image morphometric analysis was performed to determine quantitative parameters of the staining as previously described (Pascale et al., 2004, “Translocation of protein kinase C-betaII in astrocytes requires organized actin cytoskeleton and is not accompanied by synchronous RACK1 relocation.” Glia 46(2): 169-82). […]

GRP78 [1] = experiment: GRP78 protein expression (SDS-PAGE, immunoblot) in C6; type: cell-based, rat; conditions: for GRP78 expression in C6 after challenge: brief exposure (8 h), FIG. 11; for GRP78 protein expression in C6: graded concentrations, THAP 24 hours, TUN 8 hours
Procedure: (§1) Astrocytes and C6 were exposed to graded concentration of THAP as indicated in the captions for 24 hours. Thereafter, protein were extracted and run on a SDS-PAGE and immunoblotted with an anti-GRP78 antibody. Filters were exposed to ECL and films were impressed and developed (Panel B). Films were digitalized using a high resolution scanner and analyzed used imageJ (NIH). Densitometric values were averaged and plotted in the graph (Panel A). Loading conditions were checked using GAPDH housekeeping gene.
(§2) Astrocytes and C6 were exposed to TUN for 8 hours at concentrations ranging from 1.25 μg/ml to 10 μg/ml. Proteins were extracted, separated on a SDS-PAGE and immunoblotted. Filters were exposed to ECL and used to impress films (Panel B). Developed films were subsequently digitized with a high resolution scanner and analyzed with the software ImageJ (NIH). Densitometric values were averaged and plotted in the graph (Panel A).
(§3) Cells were treated as specified in the graph labeling. It is evident that glioma cells have enhanced GRP78 expression than astrocytes regardless of the challenging agent. N.T.=untreated; D=DMSO; T=TUN; Th=THAP.

astrocytes = experiment: [Ca2+]i measurement in astrocytes; type: cell-based, rat
Source text: (§4) (Statistical analysis it is shown in the inset. Values at the peak of the response have been analyzed using ANOVA followed by T-test, ** indicate P<0.01.).
(§5) Ca^2+ mobilization from ER was caused using an agonist acting via inositol trisphosphate elevation, mimicking physiological responses. In these conditions the dynamics of Ca^2+ transients were observe in these two cell lines. It appears evident that the plateau phase in C6 is consistently larger than in astrocytes.
(§6) Panel A: Challenge of astrocytes with ATP show the unchanged typical spike and plateau response. Panel B: In C6 an oscillatory pattern is readily detectable in response to treatment with TUN.
Tools and protocols have been developed to cleanly observe capacitative Ca^2+ entry (CCE), the phenomenon that allows the replenishment of intracellular Ca^2+ (ICS) stores and make quantitative and qualitative assessments. In particular, in astrocytes, capacitative Ca^2+ entry happens in absence of cytoplasmic Ca^2+ concentration ([Ca^2+]i) elevation (Grimaldi; 2006)(FIG. 1). […]
(§7) This phase is dependent on the balance of Ca^2+ influx triggered by store depletion and the reuptake in the ER due to SERCA activity. […] To investigate the role of influx triggered by ICS depletion, CCE was analyzed following THAP-induced depletion of ICS. […]

GRP78 [2] = experiment: GRP78 protein expression (SDS-PAGE, immunoblot) in astrocytes; type: cell-based, rat; conditions: for GRP78 levels in astrocytes after challenge: brief exposure (8 h), FIG. 11; for GRP78 protein expression in astrocytes: graded concentrations, THAP 24 hours, TUN 8 hours
Procedure: as §1, §2, §3

C6 = experiment: [Ca2+]i measurement in C6; type: cell-based, rat
Source text: as §4, §5, §6
Tools and protocols have been developed to cleanly observe capacitative Ca^2+ entry (CCE), the phenomenon that allows the replenishment of intracellular Ca^2+ (ICS) stores and make quantitative and qualitative assessments. In particular, in astrocytes, capacitative Ca^2+ entry happens in absence of cytoplasmic Ca^2+ concentration ([Ca^2+]i) elevation (Grimaldi; 2006)(FIG. 1). […] The study was designed to investigate if there was a difference between astrocytes and glial cancer cells in this distinctive homeostatic pattern. The findings presented in this study, indicate that there are striking differences between glial cells and their cancer counterpart. The model utilizes rat cells but the observations extend and apply to human glioma cells as well. When the responses of normal astrocytes and C6 cells to thapsigargin (THAP), an agent able to block SERCA, therefore causing the release of Ca^2+ from the ER, were compared it was evident that C6 was more sensitive to the THAP (FIG. 2). However, the difference can be ascribed to one of many possibilities. […]
as §7

GRP78 [3] = experiment: GRP78 protein expression in U87-MG; type: cell-based, human; conditions: brief exposure (8 h), FIG. 11
Procedure: as §3
Also it has been speculated that the increased higher constitutive expression in glioma cells determines their resilience to the hostile growth environment, to pharmacological treatment and to radiotherapy. However, these studies were performed comparing human astrocytes from repositories to several human malignant cell lines both commercially available or from patients. […] Therefore, in light of the preliminary observations, experiments were conducted in order to further investigate the phenomenon with the aim to better understand it. Experiments were performed using primary rat astrocytes and their glioma counterpart, the C6 cells; also, human glioma cells, such as U87-MG, were used. The latter have been widely used in assessing human glioma properties. Unstimulated expression levels of GRP78 were compared in these cells. In FIG. 11 it is possible to view that unstimulated GRP78 expression in these three cell types is very low.

DNA = conditions: cited from earlier work

C/C=C(/C)C(=O)O[C@H]1C(C)=C2[C@H]([C@@H]1OC(=O)CCCCCCC)[C@@](C)(OC(C)=O)C[C@H](OC(=O)CCC)[C@@]1(O)[C@H]2OC(=O)[C@@]1(C)O [THAP, thapsigargin]
activation of caspase 12 in astrocytes (caspase 12): completely unresponsive
EC50 (GRP78 [1]; Rattus norvegicus, Astrocyte, stated in GRP78 expression experiment, astrocytes and C6, read-out: EC50 of the substance): 2 to 5 nM
GRP78 expression in C6 after challenge (GRP78 [1]): enhanced significantly
GRP78 protein expression in C6 (GRP78 [1]): stronger elevation; also recorded: dramatically higher elevation of GRP78
[Ca2+]i elevation in astrocytes (astrocytes; 2 μM THAP): caused elevation of [Ca^2+]i
GRP78 levels in astrocytes after challenge (GRP78 [2]): always significantly lower than levels reached in C6 and U87-MG
GRP78 protein expression in astrocytes (GRP78 [2]): increased GRP78 expression
[Ca2+]i elevation in C6 (C6; 2 μM THAP): significantly higher than in astrocytes
GRP78 expression in U87-MG after challenge (GRP78 [3]): enhanced significantly

CCN(CC)CCCC(C)Nc1c2ccc(Cl)cc2nc2ccc(OC)cc12 (stereo not drawn) [quinacrine]
DNA damaging activity (DNA): not found to show DNA damaging activity

tunicamycin
activation of caspase 12 in astrocytes (caspase 12): completely unresponsive
GRP78 expression in C6 after challenge (GRP78 [1]): enhanced significantly
GRP78 protein expression in C6 (GRP78 [1]): concentration related elevation of GRP78 protein expression; also recorded: larger in C6 than in astrocytes at every concentration tested
Ca2+ transients in astrocytes after TUN pretreatment (astrocytes; challenge with ATP): transients were not changed
GRP78 levels in astrocytes after challenge (GRP78 [2]): always significantly lower than levels reached in C6 and U87-MG
GRP78 protein expression in astrocytes (GRP78 [2]): concentration related elevation of GRP78 protein expression
Ca2+ transients in C6 after TUN pretreatment (C6; challenge with ATP): appearance of [Ca^2+]i oscillations at high frequency and high amplitude
GRP78 expression in U87-MG after challenge (GRP78 [3]): enhanced significantly
